This is an account of results in patent US9670162B2, “Mitochondrial aldehyde dehyrogenase-2 modulators and methods of use thereof” (The Board of Trustees of the Leland Stanford Junior …, priority 2013, dated 2017).

For this experiment, the system named is unpurified human liver homogenates (liver mitochondria fraction), ALDH. Nature of the experiment: ALDH activity in human liver biopsy samples. It counts as biochemical. The settings on record: 20 μM, acetaldehyde substrate, 750 μg protein. On the procedure: The study of compounds of the present disclosure on unpurified human liver homogenates was carried out according to methods known in the art. Briefly, 750 μg of the total unpurified protein from the liver mitochondria fraction was used in this assay. The kinetic increase of absorbance at λ340 nm was monitored for 15 minutes for NADH. For the first 3 minutes, the assay was carried in the absence of the substrate or AD-363 to establish the base line. As expected, no NADH production was detected. Substrate acetaldehyde was then added at the 3-min time point and the reaction monitored for the next 6 min to record the catalytic rate in the absence of an activator. Compound 161 (20 μM), was then added at the 9-min time point and the reaction monitored for the next 6 min to record the increase in catalytic rate.

Regarding `COc1ccc(CNC(=O)c2c(Cl)ccnc2OCC2CC2)cc1F` [Compound 161], the “increase of human liver enzyme's catalytic rate” value came out at 2.38 folds.
